Key:
[1] = tested on: Daudi cells; assay: Antibody dependent cellular cytotoxicity (ADCC), labeled Daudi cells co-cultured with PBMC; format: cell-based; conditions: Daudi labeled with 1 μM Labeling Probe; PBMC E:T 20:1; 5 hours at 37° C.
Protocol: As shown in FIGS. 3A-3C, experiments were conducted to test antibody dependent cellular cytotoxicity (ADCC) in Daudi (FIGS. 3A-3B) and SKBR3 (FIG. 3C) cells labeled with the bifunctional probes of the present disclosure. Daudi and SKBR3 cells were labeled with 1 μM and 10 μM Labeling Probe respectively and co-cultured with peripheral blood mononuclear cells (PBMC; Cellular Technologies Limited) at an E:T ratio of 20:1 (100,000 effector to 5,000 target) with indicated antibody titrations for 5 hours at 37° C. prior to Nano-Glo® Luciferase Assay Substrate addition. […] Curves in FIGS. 3B and 3C were generated following assay background subtraction (RLU [Target cells+Effector cells+Detection Components]−RLU [Media+Detection Components]) using a four parametric variable slope algorithm in Prism.

[2] = tested on: Raji target cells; assay: Bispecific T-cell engager (BiTE) target cell lysis, labeled Raji target cells with TALL-104 effector cells; format: cell-based; conditions: Raji (1.67 μM Labeling probe); TALL-104 effector 2.5:1; 6 hours at 37° C.
Protocol: BiTEs are a class of artificial bispecific monoclonal antibodies that are investigated for the use as anti-cancer drugs as they are used to direct the T cells' cytotoxic activity to target cells (e.g., cancer cells). As shown, Raji target cells (1.67 μM Labeling probe) and TALL-104 effector cells were co-cultured at 2.5:1 ratio (12,500 effector to 5,000 target) in a 96-well assay plate. Bincyto was titrated at indicated concentrations and assay plate was incubated for 6 hours at 37° C. prior to Nano-Glo® Luciferase Assay Substrate addition. Curves were generated following assay background subtraction as described in above. […] S/B=BiTE/no BiTE. % antibody dependent target cell lysis=100×(RLU [target+ effector+antibody]−RLU [target+ effector])/(RLU [target+ effector+digitonin]−RLU [target+ effector]).

Row | EC50 [2] | Substance | EC50 [1]
1 | – | Rituximab: antibody titrated in ADCC assay on Daudi cells | 6.8 ng/mL
2 | 5.38 µM | Bincyto: bispecific T-cell engager (BiTE) titrated on Raji target cells with TALL-104 effector cells | –
